Data as given in patent US9642859B2, “Use of capsazepine and analogs thereof to treat cancer” (THE BOARD OF REGENTS OF THE UNIVERSITY OF TEXAS SYSTEM, priority 2012, dated 2017).
Entries after “also recorded” stand apart in the source; their conditions may differ.

Key:
HSC3 cells = experiment: Cell viability assay of HSC3 cells, dose response curve; type: cell-based; details: Homo sapiens, HSC-3, HSC3 cells, FIG. 1K
Excerpt: FIG. 1K. Cell viability assay of HSC3 cells treated with increasing concentrations of curcumin; […]

OKF6 cells = experiment: Cell viability assay of immortalized non-malignant oral keratinocytes; type: cell-based; details: 24 hours
Excerpt: FIG. 1D-2. […] Treatment with high concentrations of CAP induces death of normal, non-malignant OKF6 cells. The effect of which was reversed by the pre-treatment with CPZ.

HSC3 [1] = experiment: Cell cycle analysis by DNA profile FACS, HSC3; type: cell-based, human; details: 24 hours
Description: (§1) In particular, Table 1 provides additional cell cycle distribution data of OSCC cells (%) treated with 0 μM, 30 μM, 60 μM, or 90 μM CPZ for 24 hours. Data for OSCC cell lines HSC3, SCC4, and SCC25 are also provided in diagrams of FIGS. 1G-1, 1G-2, and 1G-3, respectively.

HSC3 [2] = experiment: Additional cell proliferation assay, HSC3; type: cell-based, human; details: HSC3, 24 hour treatment
Excerpt: (§2) Observed reductions in cell proliferation in these additional in vitro studies are as follows: SCC4, 40%; HSC3, 50%; SCC25, 80%; Cal27, 15%; MDA231, 56%; and LnCap, 37%.

SCC25 = experiment: Additional cell proliferation assay, SCC25; type: cell-based, human; details: SCC25, 24 hour treatment
Excerpt: as §2

[3] = tested on: prostate cancer cell line LnCap; experiment: Additional cell proliferation assay, LnCap; type: cell-based; details: 24 hour treatment
Excerpt: as §2

[4] = tested on: OSCC cell lines (HSC3, SCC4, and SCC25); experiment: Calcium imaging of OSCC cell lines; type: cell-based, human; details: capsazepine 30 μM (cytotoxic dose)
Description: FIGS. 1J-1 to 1J-2. FIGS. 1J-1(a) to (c): […] FIGS. 1J-2(a) to (c): […] Arrow indicates time point when treatment was added. […] This was due to the toxic effects of this high capsaicin concentration which permeablized the cell membrane allowing calcium to flow freely […] the cell. This was not reversed by capsazepine. […] These finding confirm that activation of TRPV1 is not the mechanism by which cell death is induced using capsazepine.

[5] = tested on: OSCC cell lines (HSC3, SCC4, and SCC25); experiment: Western blot analysis of cleaved PARP; type: cell-based, human; details: increasing doses of CPZ, 24 h
Description: FIG. 1F. […] The Control (Ctrl) is […].
as §1

HSC3 xenografts = experiment: OSCC mouse xenograft model, HSC3; type: in vivo, athymic nude (nu/nu) mice; details: 40 μg CPZ intra-tumoral every other day
Excerpt: (§3) Animals. Six week-old female athymic nude (nu/nu) mice were purchased from HARLAN Laboratories (Indianapolis, Ind.) and used in a laminar air-flow cabinet under pathogen-free conditions. They were provided with a 12-h light/dark schedule at controlled temperature and humidity with food and water ad libitum. Mice were allowed to acclimate for at least one week prior to the start of the experiments. All procedures were approved by the UTHSCSA (University of Texas Health Science Center—San Antonio) Institutional Animal Care and Use Committee.
(§4) OSCC Mouse Xenograft Model. Mice were injected subcutaneously in the right flank with 2×10^6 HSC3, SCC4, or SCC25 cells in 0.1 ml of sterile phosphate buffered saline (each of these cell lines is published in scientific literature). Four weeks post-inoculation, tumors had grown to an average volume of 110 mm^3. Mice were then divided into two experimental groups of five animals each, which received the following treatments as intra-tumoral injections: group A, vehicle control (7% DMSO in sterile saline); group B, CPZ treatment (40 μg). The injections were repeated every other day and for a total of at least 14 days.
Treatments. […] Mice were monitored daily for tumor growth, cachexia, and weight loss. Tumor volumes and body weight were recorded every other day. Tumor volumes were calculated by the formula: (4π/3)×(w/2)2×(l/2), where w=width and l=length. […]

SCC4 xenografts = experiment: OSCC mouse xenograft model, SCC4; type: in vivo, athymic nude (nu/nu) mice
Excerpt: as §3, §4
Treatments. CPZ (5 mg) was diluted in 250 μl of 100% DMSO to yield a final concentration of 20 μg/μl of stock solution. Stock solution (100 m) was subsequently diluted in 7% DMSO in sterile saline generating a final concentration of 1 μg/μl. […] Control xenografts were injected intra-tumorally with 40 μl of vehicle control (7% DMSO). Mice were monitored daily for tumor growth, cachexia, and weight loss. Tumor volumes and body weight were recorded every other day. Tumor volumes were calculated by the formula: (4π/3)×(w/2)2×(l/2), where w=width and l=length. Measurements were made using a digital caliper. At the conclusion of the experiments, mice were anaesthetized with isoflurane and cervical dislocation, blood was collected, and the serum was separated and stored at −80° C. until assayed. Biochemical analysis of serum was performed by the Mouse Metabolic Phenotyping Center (Yale School of Medicine, New Haven, Conn.). […]

[6] = Tolerability observations in tumor bearing mice treated intratumorally; type: in vivo
Description: Treatments. CPZ (5 mg) was diluted in 250 μl of 100% DMSO to yield a final concentration of 20 μg/μl of stock solution. Stock solution (100 m) was subsequently diluted in 7% DMSO in sterile saline generating a final concentration of 1 μg/μl. A total of 40 μg in 40 μl was injected intra-tumorally. Control xenografts were injected intra-tumorally with 40 μl of vehicle control (7% DMSO). Mice were monitored daily for tumor growth, cachexia, and weight loss. Tumor volumes and body weight were recorded every other day. Tumor volumes were calculated by the formula: (4π/3)×(w/2)2×(l/2), where w=width and l=length. Measurements were made using a digital caliper. At the conclusion of the experiments, mice were anaesthetized with isoflurane and cervical dislocation, blood was collected, and the serum was separated and stored at −80° C. until assayed. Biochemical analysis of serum was performed by the Mouse Metabolic Phenotyping Center (Yale School of Medicine, New Haven, Conn.). Tumors were dissected and placed in 10% neutral buffered formalin (SIGMA, St. Louis, Mo.) and processed for histological analysis.

[7] = tested on: OSCC cell lines (HSC3, SCC4, and SCC25)
Description: Cell viability assays reported as % of vehicle control (n=3). […] VEH=delivery vehicle control without CAP or CPZ. *p<0.05, ***p<0.001.
FIG. 1H-1: Cell viability assays of OSCC cell lines treated with 30 μM CPZ alone or in combination with 10 mM N-Acetyl-L-Cysteine (NAC) for 24 h (n=4); ***p<0.001.
Human OSCC Cell Lines. The human OSCC cell lines MDA231, PS3, SCC4 and SCC25 were obtained from ATCC (American Type Culture Collection, Rockville, Md.). The HSC3 cell line was obtained from the Japanese Cell Resource Bank (Osaka, Japan). […] Cells were maintained in DMEM (GIBCO, Carlsbad, Calif.) supplemented with 10% FBS at 37° C. in 5% CO2. Both cell lines were derived from primary OSCC tumors from the tongues of male patients in their fifth generation of life. Data regarding pertinent medical history, treatment, outcome of care and recurrence were not available.
Statistical Analysis. Statistical analyses were performed using GraphPad Prism4 (San Diego, Calif.). Experiments were performed in triplicate and results are represented as means+SD except when indicated. […] Cytotoxicity assays of cell viability were analyzed by one-way ANOVA and Bonferroni's post-hoc test (n=3).

[8] = tested on: nicotinic acetylcholine receptors; details: cited from earlier work

For Oc1cc2c(cc1O)CN(C(=S)NCCc1ccc(Cl)cc1)CCC2 [CPZ, 2-[2-(4-chlorphenyl)ethylamino-thiocarbonyl]-7,8-dihydroxy-2,3,4,5-tetrahydro-1H-2-benzazepine], which IC50 (HSC3 cells) is on record?
Its IC50 is 30 µM.

What about the “effect of CPZ on CAP-induced reduction in cell viability” value (OKF6 cells; CAP 150 μM / CPZ 30 μM) of the same molecule?
Its value is “reversed the effects”.

And the “toxicity on normal, non-malignant cells” value (OKF6 cells; CPZ 30 μM)?
The value was “non-toxic effect; also recorded: no toxicity was observed”.

And the G0/G1 (HSC3 [1]; HSC3, CPZ 30 μM)?
Its G0/G1 is 47.76%.

What about the G2/M (HSC3 [1]; HSC3, CPZ 30 μM) of the same molecule?
The G2/M was 20.3%.

And the S (HSC3 [1]; HSC3, CPZ 30 μM)?
Its S is 13.47%.

What about the SubG1 (HSC3 [1]; HSC3, CPZ 30 μM) of the same molecule?
Its SubG1 is 18.47%.

What about the G0/G1 (HSC3 [1]; HSC3, CPZ 60 μM) of the same molecule?
The G0/G1 was 24.09%.

What about the G2/M (HSC3 [1]; HSC3, CPZ 60 μM) of the same molecule?
The G2/M was 7.37%.

And the S (HSC3 [1]; HSC3, CPZ 60 μM)?
Its S is 11.23%.

And the SubG1 (HSC3 [1]; HSC3, CPZ 60 μM)?
Its SubG1 is 57.31%.

What about the G0/G1 (HSC3 [1]; HSC3, CPZ 90 μM) of the same molecule?
The G0/G1 was 23.53%.

What about the G2/M (HSC3 [1]; HSC3, CPZ 90 μM) of the same molecule?
Its G2/M is 5.08%.

And the S (HSC3 [1]; HSC3, CPZ 90 μM)?
The S was 10.27%.

And the SubG1 (HSC3 [1]; HSC3, CPZ 90 μM)?
The SubG1 was 61.12%.

What about the “reduction in cell proliferation” value (HSC3 [2]) of the same molecule?
Its value is 50%.

What about the “reduction in cell proliferation” value (SCC25) of the same molecule?
The value was 80%.

What about the “reduction in cell proliferation” value [3] of the same molecule?
Its value is 37%.

And the intra-cellular calcium levels [4]?
The intra-cellular calcium levels was “had no effect on intra-cellular calcium levels”.

What about the “cleaved PARP (c-PARP, marker of apoptosis)” value [5] of the same molecule?
The value was “induction of cleaved PARP”.

What about the healing of xenografts (HSC3 xenografts) of the same molecule?
Its healing of xenografts is “complete healing in some treated HSC3 xenografts”.

And the tumor volume (HSC3 xenografts; two weeks, p<0.05)?
The tumor volume was “significant reduction in tumor volume”.

And the tumor growth rate (SCC4 xenografts; 40 μg CPZ intra-tumoral every other day, two weeks, p<0.05)?
Its tumor growth rate is “significant reduction in tumor growth rate”.

And the “growth of vehicle-control-treated tumors versus CPZ treated” value (SCC4 xenografts; 40 μg CPZ, day sixteen, p<0.01)?
Its value is “two-fold greater”.

And the “difference in tumor growth rates between vehicle control and treated mice” value (SCC4 xenografts; 60 μg CPZ, repeat experiments (data not shown))?
The value was 3 fold.

What about the body weight ([6]; approximately two-week intra-tumoral CPZ treatment) of the same molecule?
The body weight was “did not lose weight”.

And the adjacent healthy tissues ([6]; intratumoral injection with CPZ)?
The adjacent healthy tissues was “No inflammation, ulceration, necrosis or pain were evident”.

And the cytotoxicity [7]?
The cytotoxicity was “significant dose dependent cytotoxicity”.

And the “effect on nicotinic acetylcholine receptors” value [8]?
The value was “Inhibitis”.
